# Target: T1, vanilloid receptor 1 (VR1/TRPV1 receptor) (Homo sapiens, UniProt Q8NER1)
# T1 construct: expressed in transfected cells; host or cells: CHO K1 cells (ECACC), stably transfected
# Assay: VR1/TRPV1 receptor affinity, capsaicin stimulus (human)
# Format: cell-based, human being
# Settings: for Ki: Tables 8-12, read-out: (f) Ki (human being) [nM] Cap; for inhibition at 5 µM: Tables 8-12, read-out: (f) Ki (human being) [nM] Cap: inhibition (as a percentage)
# T1 sequence (Q8NER1 whole entry): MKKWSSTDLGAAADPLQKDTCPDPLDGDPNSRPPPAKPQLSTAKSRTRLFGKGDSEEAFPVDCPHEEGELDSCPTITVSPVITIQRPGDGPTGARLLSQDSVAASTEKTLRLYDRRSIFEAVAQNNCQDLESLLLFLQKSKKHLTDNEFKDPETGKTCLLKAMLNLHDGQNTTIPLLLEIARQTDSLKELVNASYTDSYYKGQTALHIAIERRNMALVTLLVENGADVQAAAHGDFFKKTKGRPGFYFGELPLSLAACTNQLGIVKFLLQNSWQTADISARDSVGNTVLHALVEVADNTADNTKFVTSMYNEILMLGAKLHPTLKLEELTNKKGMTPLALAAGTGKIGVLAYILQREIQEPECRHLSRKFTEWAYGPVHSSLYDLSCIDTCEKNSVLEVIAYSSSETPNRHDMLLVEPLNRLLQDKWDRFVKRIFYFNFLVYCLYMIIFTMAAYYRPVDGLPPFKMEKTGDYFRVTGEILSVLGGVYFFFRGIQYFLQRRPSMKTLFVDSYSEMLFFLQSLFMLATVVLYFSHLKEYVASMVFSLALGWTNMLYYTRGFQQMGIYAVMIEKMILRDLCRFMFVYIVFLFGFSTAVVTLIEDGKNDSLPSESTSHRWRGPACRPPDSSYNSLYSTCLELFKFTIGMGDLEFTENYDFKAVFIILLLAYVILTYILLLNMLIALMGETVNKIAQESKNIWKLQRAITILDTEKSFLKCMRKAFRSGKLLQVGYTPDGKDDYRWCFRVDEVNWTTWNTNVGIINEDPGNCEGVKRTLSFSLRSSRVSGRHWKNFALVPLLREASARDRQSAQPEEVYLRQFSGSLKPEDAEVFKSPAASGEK
Ki,inhibition at 5 µM,SMILES
2 nM,–,"CC(C)c1cccc(-n2nc(C(F)(F)F)cc2CNC(=O)Nc2ccc(CNS(N)(=O)=O)cc2)c1 [Example B79, 1-[[2-(3-Isopropyl-phenyl)-5-(trifluoromethyl)-2H-pyrazol-3-yl]-methyl]-3-[4-[(sulfamoylamino)-methyl]-phenyl]-urea]"
2 nM,–,"CC(C)c1cccc(-n2nc(C(F)(F)F)cc2CNC(=O)Nc2ccc(CNS(N)(=O)=O)c(F)c2)c1 [Example B80, 1-[3-Fluoro-4-[(sulfamoylamino)-methyl]-phenyl]-3-[[2-(3-isopropyl-phenyl)-5-(trifluoromethyl)-2H-pyrazol-3-yl]-methyl]-urea]"
33 nM,–,"CS(=O)(=O)NCc1ccc(NC(=O)NCc2cc(C(F)(F)F)nn2-c2cccc(Cl)c2)cc1 [Example B81, 1-[[2-(3-Chlorophenyl)-5-(trifluoromethyl)-2H-pyrazol-3-yl]-methyl]-3-[4-(methanesulfonamido-methyl)-phenyl]-urea]"
0.8 nM,–,"CC(C)c1cccc(-n2nc(C(F)(F)F)cc2CNC(=O)C(C)c2ccc(CNS(C)(=O)=O)c(F)c2)c1 (stereo not shown) [Example B82, 2-[3-Fluoro-4-(methanesulfonamido-methyl)-phenyl]-N-[[2-(3-isopropyl-phenyl)-5-(trifluoromethyl)-2H-pyrazol-3-yl]-methyl]-propionamide]"
3 nM,–,"CC(C)c1cccc(-n2nc(C(F)(F)F)cc2CNC(=O)Nc2ccc(CNS(C)(=O)=O)cc2)c1 [Example B83, 1-[[2-(3-isopropyl-phenyl)-5-(trifluoromethyl)-2H-pyrazol-3-yl]-methyl]-3-[4-(methanesulfonamido-methyl)-phenyl]-urea]"
53 nM,–,"CCS(=O)(=O)NCc1ccc(NC(=O)NCc2cc(C(F)(F)F)nn2-c2cccc(Cl)c2)cc1 [Example B84, 1-[[2-(3-Chlorophenyl)-5-(trifluoromethyl)-2H-pyrazol-3-yl]-methyl]-3-[4-[[(ethylsulfonyl)amino]-methyl]-phenyl]-urea]"
16 nM,–,"CCS(=O)(=O)NCc1ccc(NC(=O)NCc2cc(C(C)(C)C)nn2-c2cccc(Cl)c2)cc1 [Example B85, 1-[[5-tert-Butyl-2-(3-chlorophenyl)-2H-pyrazol-3-yl]-methyl]-3-[4-[[(ethylsulfonyl)amino]-methyl]-phenyl]-urea]"
93 nM,–,"COc1cc(NC(=O)NCc2cc(C(F)(F)F)nn2-c2cccc(C)c2)ccc1CNS(C)(=O)=O [Example B86, 1-[4-(Methanesulfonamido-methyl)-3-methoxy-phenyl]-3-[[2-(m-tolyl)-5-(trifluoromethyl)-2H-pyrazol-3-yl]-methyl]-urea]"
15 nM,–,"Cc1cccc(-n2nc(C(F)(F)F)cc2CNC(=O)Nc2ccc(CNS(C)(=O)=O)c(F)c2)c1 [Example B87, 1-[3-Fluoro-4-(methanesulfonamido-methyl)-phenyl]-3-[[2-(m-tolyl)-5-(trifluoromethyl)-2H-pyrazol-3-yl]-methyl]-urea]"
29 nM,–,"Cc1cccc(-n2nc(C(C)(C)C)cc2CNC(=O)C(C)c2ccc(CNS(C)(=O)=O)c(F)c2)c1 (stereo not shown) [Example B88, N-[[5-tert-Butyl-2-(m-tolyl)-2H-pyrazol-3-yl]-methyl]-2-[3-fluoro-4-(methanesulfonamido-methyl)-phenyl]-propionamide]"
24 nM,–,"Cc1cccc(-n2nc(C(F)(F)F)cc2CNC(=O)Nc2ccc(CNS(C)(=O)=O)cc2)c1 [Example B89, 1-[4-(Methanesulfonamido-methyl)-phenyl]-3-[[2-(m-tolyl)-5-(trifluoromethyl)-2H-pyrazol-3-yl]-methyl]-urea]"
12 nM,–,"Cc1cccc(-n2nc(C(C)(C)C)cc2CNC(=O)Nc2ccc(CNS(C)(=O)=O)cc2)c1 [Example B90, 1-[[5-tert-Butyl-2-(m-tolyl)-2H-pyrazol-3-yl]-methyl]-3-[4-(methanesulfonamido-methyl)-phenyl]-urea]"
57 nM,–,"CCS(=O)(=O)NCc1ccc(NC(=O)NCc2cc(C(F)(F)F)nn2-c2cccc(C)c2)cc1 [Example B91, 1-[4-[[(Ethylsulfonyl)amino]-methyl]-phenyl]-3-[[2-(m-tolyl)-5-(trifluoromethyl)-2H-pyrazol-3-yl]-methyl]-urea]"
67 nM,–,"CCS(=O)(=O)NCc1ccc(NC(=O)NCc2cc(C(C)(C)C)nn2-c2cccc(C)c2)cc1 [Example B92, 1-[[5-tert-Butyl-2-(m-tolyl)-2H-pyrazol-3-yl]-methyl]-3-[4-[[(ethylsulfonyl)amino]-methyl]-phenyl]-urea]"
4 nM,–,"CC(C(=O)NCc1cc(C(C)(C)C)nn1-c1cccc(Cl)c1)c1ccc(CNS(N)(=O)=O)c(F)c1 (stereo not shown) [Example B93, N-[[5-tert-Butyl-2-(3-chlorophenyl)-2H-pyrazol-3-yl]-methyl]-2-[3-fluoro-4-[(sulfamoylamino)-methyl]-phenyl]-propionamide]"
0.9 nM,–,"CC(C)c1cccc(-n2nc(C(F)(F)F)cc2CNC(=O)C(C)c2ccc(CNS(N)(=O)=O)c(F)c2)c1 (stereo not shown) [Example B94, 2-[3-Fluoro-4-[(sulfamoylamino)-methyl]-phenyl]-N-[[2-(3-isopropyl-phenyl)-5-(trifluoromethyl)-2H-pyrazol-3-yl]-methyl]-propionamide]"

Ki,inhibition at 5 µM,SMILES
22 nM,–,"CC(C(=O)NCc1cc(C2CC2)nn1-c1cccc(Cl)c1)c1ccc(CNS(N)(=O)=O)c(F)c1 (stereo not shown) [Example B95, N-[[2-(3-Chlorophenyl)-5-cyclopropyl-2H-pyrazol-3-yl]-methyl]-2-[3-fluoro-4-[(sulfamoylamino)-methyl]-phenyl]-propionamide]"
0.9 nM,–,"CC(C(=O)NCc1cc(C(C)(C)C)nn1-c1ccc(F)c(Cl)c1)c1ccc(CNS(N)(=O)=O)c(F)c1 (stereo not shown) [Example B96, N-[[5-tert-Butyl-2-(3-chloro-4-fluoro-phenyl)-2H-pyrazol-3-yl]-methyl]-2-[3-fluoro-4-[(sulfamoylamino)-methyl]-phenyl]-propionamide]"
1 nM,–,"CC(C(=O)NCc1cc(C(F)(F)F)nn1-c1cccc(Cl)c1)c1ccc(CNS(N)(=O)=O)c(F)c1 (stereo not shown) [Example B97, N-[[2-(3-Chlorophenyl)-5-(trifluoromethyl)-2H-pyrazol-3-yl]-methyl]-2-[3-fluoro-4-[(sulfamoylamino)-methyl]-phenyl]-propionamide]"
3 nM,–,"COc1cc(C(C)C(=O)NCc2cc(C(C)(C)C)nn2-c2cccc(Cl)c2)ccc1CNS(C)(=O)=O (stereo not shown) [Example B98, N-[[5-tert-Butyl-2-(3-chlorophenyl)-2H-pyrazol-3-yl]-methyl]-2-[4-(methanesulfonamido-methyl)-3-methoxy-phenyl]-propionamide]"
–,43%,"O=C(NCc1cc(C(F)(F)F)nn1-c1cccc(Cl)c1)Nc1ccc(CN2CCCC2)cc1 [Example B99, 1-[[2-(3-Chlorophenyl)-5-(trifluoromethyl)-2H-pyrazol-3-yl]-methyl]-3-[4-(pyrrolidin-1-yl-methyl)-phenyl]-urea]"
–,17%,"O=C(NCc1cc(C(F)(F)F)nn1-c1cccc(Cl)c1)Nc1ccc(CN2CCCCC2)c(F)c1 [Example B100, 1-[[2-(3-Chlorophenyl)-5-(trifluoromethyl)-2H-pyrazol-3-yl]-methyl]-3-[3-fluoro-4-(piperidin-1-yl-methyl)-phenyl]-urea]"
–,43%,"CC(C)(C)c1cc(CNC(=O)Nc2ccc(CN3CCCC3)c(F)c2)n(-c2cccc(Cl)c2)n1 [Example B101, 1-[[5-tert-Butyl-2-(3-chlorophenyl)-2H-pyrazol-3-yl]-methyl]-3-[3-fluoro-4-(pyrrolidin-1-yl-methyl)-phenyl]-urea]"
1 nM,–,"CC(C(=O)NCc1cc(C(F)(F)F)nn1-c1cccc(Cl)c1)c1ccc(CNS(N)(=O)=O)cc1 (stereo not shown) [Example B102, N-[[2-(3-Chlorophenyl)-5-(trifluoromethyl)-2H-pyrazol-3-yl]-methyl]-2-[4-[(sulfamoylamino)-methyl]-phenyl]-propionamide]"
0.7 nM,–,"CC(C(=O)NCc1cc(C(C)(C)C)nn1-c1cccc(Cl)c1)c1ccc(CNS(N)(=O)=O)cc1 (stereo not shown) [Example B103, N-[[5-tert-Butyl-2-(3-chlorophenyl)-2H-pyrazol-3-yl]-methyl]-2-[4-[(sulfamoylamino)-methyl]-phenyl]-propionamide]"
49 nM,–,"CC(C(=O)NCc1cc(C(F)(F)F)nn1-c1cccc(Cl)c1)c1ccc(N2CCCS2(=O)=O)c(F)c1 (stereo not shown) [Example C1, N-[[2-(3-Chlorophenyl)-5-(trifluoromethyl)-2H-pyrazol-3-yl]-methyl]-2-[4-(1,1-dioxo-[1,2]thiazolidin-2-yl)-3-fluoro-phenyl]-propionamide]"
50 nM,–,"CC(C(=O)NCc1cc(C(C)(C)C)nn1-c1ccc(F)c(Cl)c1)c1ccc(N2CCCS2(=O)=O)c(F)c1 (stereo not shown) [Example C2, N-[[5-tert-Butyl-2-(3-chloro-4-fluoro-phenyl)-2H-pyrazol-3-yl]-methyl]-2-[4-(1,1-dioxo-[1,2]thiazolidin-2-yl)-3-fluoro-phenyl]-propionamid]"
–,54%,"CC(C(=O)NCc1cc(C(F)(F)F)nn1-c1ccc(F)c(F)c1)c1ccc(N2CCCS2(=O)=O)c(F)c1 (stereo not shown) [Example C3, N-[[2-(3,4-Difluoro-phenyl)-5-(trifluoromethyl)-2H-pyrazol-3-yl]-methyl]-2-[4-(1,1-dioxo-[1,2]thiazolidin-2-yl)-3-fluoro-phenyl]-propionamide]"
–,13%,"O=C(NCc1cc(C(F)(F)F)nn1-c1cccc(F)c1)Nc1ccc(N2CCCC2)c(F)c1 [Example C4, 1-[[2-(3-Fluorophenyl)-5-(trifluoromethyl)-2H-pyrazol-3-yl]-methyl]-3-(3-fluoro-4-pyrrolidin-1-yl-phenyl)-urea]"
44 nM,–,"O=C(NCc1cc(C(F)(F)F)nn1-c1cccc(Cl)c1)Nc1ccc(N2CCOCC2)c(F)c1 [Example C5, 1-[[2-(3-Chlorophenyl)-5-(trifluoromethyl)-2H-pyrazol-3-yl]-methyl]-3-(3-fluoro-4-morpholin-4-yl-phenyl)-urea]"
43 nM,–,"O=C(NCc1cc(C(F)(F)F)nn1-c1cccc(Cl)c1)Nc1ccc(N2CC(O)C2)c(F)c1 [Example C6, 1-[[2-(3-Chlorophenyl)-5-(trifluoromethyl)-2H-pyrazol-3-yl]-methyl]-3-[3-fluoro-4-(3-hydroxy-azetidin-1-yl)-phenyl]-urea]"

# — patent publication US9624209B2, “Substituted phenylureas and phenylamides as vanilloid receptor ligands” (Gruenenthal GmbH, priority 2009, dated 2017)
